The results in this text go back to US20260297031A1, “HYDROXYLAMINE-BASED BCR-ABL1 INHIBITORS FOR TREATMENT OF CANCER” (University of Georgia Research Foundation, Inc., priority 2023, published 2026).

pIC50: −log10 of the molar value.

Series [1] addresses T1, BCR-ABL1 M351T (Homo sapiens, UniProt P00519, M351T).
T1 construct: BCR (fusion partner, as the printed name BCR-ABL1 says)
As to the kind of experiment: KinaseProfiler radiometric kinase assay, BCR-ABL1 M351T. The format is biochemical. The following applies: [ATP] = 10 μM; mean of n = 2.

The test system of series [2] is Caco-2 cells. Nature of the series: Caco-2 permeability. The following applies: Papp (b − a/a − b). On the procedure:
Caco-2 Permeability (Independently Performed by Pharmaron Inc., Ningbo, CN)
To each well of the Transwell insert and reservoir were added 50 μL and 25 mL of cell culture medium, respectively. […] Following this, the Caco-2 plate was removed from the incubator and the monolayer washed twice with pre-warmed HBSS (10 mM HEPES, pH 7.4).
To determine the rate of drug transport in the apical to basolateral direction, 125 μL of the working solution of either test compounds or control compounds was added to the Transwell insert (apical compartment) and a 50 μL sample was immediately transported from the apical compartment to 200 μL of acetonitrile containing internal standard (100 nM alprazolam, 200 nM Caffeine and 100 nM tolbutamide) in a new 96-well plate as the initial donor sample (A-B). The sample was then vortexed at 1,000 rpm for 10 min. The receiver plate (basolateral compartment) wells were then filled with 235 μL of transport buffer. To determine the rate of drug transport in the basolateral to apical direction, 285 μL of the working solution of either test compounds or control compounds was added to the receiver plate wells (basolateral compartment) and a 50 μL sample was immediately transferred from the basolateral compartment to 200 μL of acetonitrile containing internal standard in a new 96-well plate as the initial donor sample (B-A). The sample was vortexed at 1,000 rpm for 10 min. The Transwell insert (apical compartment) was then filled with 75 μL of transport buffer and the apical to basolateral direction and the basolateral to apical direction were done at the same time. […] After incubation, 50 μL samples from donor sides (apical compartment for Ap→BI flux, and basolateral compartment for BI→Ap) and receiver sides (basolateral compartment for Ap→BI flux, and apical compartment for BI→Ap) were transferred to wells of a new 96-well plate, followed by the addition of 200 μL acetonitrile containing internal standard. All samples were vortexed for 10 min and then centrifuged at 3,220 g for 40 min. A 150 μL aliquot of the supernatant was then mixed with an appropriate volume of ultra-pure water prior to LC-MS/MS analysis.
To monitor for monolayer integrity, Lucifer yellow leakage was determined after the 2 h transport period. This began by preparing a stock solution of Lucifer yellow in DMSO which was diluted with HBSS (10 mM HEPES, pH 7.4.) to reach a final concentration of 100 μM. To each Transwell insert (apical compartment) was then added 100 μL of the Lucifer yellow solution, followed by filling the wells in the receiver plate (basolateral compartment) with 300 μL of HBSS (10 mM HEPES, pH 7.4).
The efflux ratio was determined using the following equation: […]
For orientation: Caco-2 cells form a polarised layer with tight junctions and transporters.

Series [3] can be described thus: Plasma protein binding by equilibrium dialysis, human plasma. The format is in vitro ADME. The following applies: for % Unbound: human plasma, 360 min, 5 µM. On the procedure: Plasma Protein Binding by Equilibrium Dialysis (Independently Performed by Pharmaron Inc., Ninqbo, CN)
Initially, 1 mM solutions of test compounds and the control compound (Ketoconzaole) were prepared in DMSO. After this, dialysis membranes were soaked in ultrapure water for 60 min to separate strips, followed by 20% aq. ethanol for 20 min, and finally in a dialysis buffer for 20 min. […] After this, 597 μL of blank plasma solution followed by 3 μL of the working solutions of either test compounds or control compound were added to a new plastic plate or separate plastic tube and the solutions were vortexed at 1,000 rpm for 2 min. Immediately after this, 50 μL of spiked plasma solution suspension was transferred to a 96-well plate to act as T=0 control. The remaining samples were treated in the same manner, whereby all remaining spiked plasma solutions were added to the incubator for the duration of the study.
Cells were then loaded with 120 μL of the plasma samples and dialyzed against an equal volume of dialysis buffer (PBS). […] At the end of incubation, the lid was removed and 50 μL of post-dialysis samples were removed from both buffer and plasma solution chambers into a separate 96-well plate for analysis. The plasma solutions (50 μL) were then added to the buffer samples along with an equal volume of PBS (50 μL) to the collected plasma solution samples. The plate was shaken at 1,000 rpm for 2 min and 400 μL of acetonitrile containing an appropriate internal standard was added to precipitate protein and release compound. The samples were then vortexed at 1,000 rpm for an additional 10 min followed by centrifugation at 3,220 g for 30 min. Supernatant (250 μL) was then added to a new 96-well plate and centrifuged again at 3,220 g for 30 min and 100 μL of this supernatant was then added to a new 96-well plate for analysis. The samples were analyzed by LC-MS/MS and 100 μL of distilled water was added to each sample prior to analysis.
Concentrations of test compounds and control compound in buffer and plasma solution chambers was determined and percentages of test compounds and control compound bound using the following equations (mean of n=2 replicates): […]
For orientation: In equilibrium dialysis only unbound substance equilibrates across the membrane.

In series [4] the target is cSRC (Homo sapiens, UniProt P12931). Nature of the series: KinaseProfiler radiometric kinase assay, cSRC wt. The following applies: [ATP] = 10 μM; mean of n = 2. The format is biochemical.
cSRC, sequence (P12931 whole entry): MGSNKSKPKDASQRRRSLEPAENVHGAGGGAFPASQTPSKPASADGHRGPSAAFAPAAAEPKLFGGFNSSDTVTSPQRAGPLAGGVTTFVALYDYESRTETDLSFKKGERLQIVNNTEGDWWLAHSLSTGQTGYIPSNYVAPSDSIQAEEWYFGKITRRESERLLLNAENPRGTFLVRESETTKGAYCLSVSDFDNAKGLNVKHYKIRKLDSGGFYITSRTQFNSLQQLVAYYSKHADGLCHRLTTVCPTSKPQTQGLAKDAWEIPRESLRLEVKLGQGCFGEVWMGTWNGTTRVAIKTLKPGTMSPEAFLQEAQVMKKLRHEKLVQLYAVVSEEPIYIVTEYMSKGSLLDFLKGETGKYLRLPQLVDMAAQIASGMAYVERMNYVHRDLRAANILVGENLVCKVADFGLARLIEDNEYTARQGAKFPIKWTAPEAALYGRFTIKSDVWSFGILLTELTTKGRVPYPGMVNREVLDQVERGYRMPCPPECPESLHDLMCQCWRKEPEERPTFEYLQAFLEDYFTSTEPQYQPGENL
The nature of series [5]: Metabolic stability in human hepatocytes. Here is the method:
Metabolic Stability in Hepatocytes (Independently Performed by Pharmaron Inc., Ninqbo, CN)
After thawing was complete, hepatocytes were transferred into a 50 mL conical tube containing thawing medium and the tube was then placed into a centrifuge and spun at 100 g for 10 min. […] Using AO/PI staining, cells were counted to determine the viable cell density. […] Subsequently, 2 μL of the 100 μM test compounds or control compound solutions was transferred into the respective wells of the 96-well non-coated plate to start the reaction. […] Aliquots of 100 μL of the supernatant were then diluted by 100 μL of ultra-pure water, and the mixture was analyzed by LC-MS/MS.
All calculations were carried out using Microsoft Excel. Peak areas were determined from extracted ion chromatograms. The in-vitro half-life (t1/2) of parent compound was determined by regression of the percent parent disappearance vs. time curve.

With `COc1cc(Nc2c(C#N)cnc3cc(OCCON4CCN(C)CC4)c(OC)cc23)c(F)cc1Cl` [Compound 15, 4-((4-chloro-2-fluoro-5-methoxyphenyl)amino)-6-methoxy-7-(2-((4-methylpiperazin-1-yl)oxy)ethoxy)quinoline-3-carbonitrile], the pIC50 – broadly, the IC50 on a negative log10 scale, so that one unit is a factor of ten – in series [1] is 8.70. In series [2], the “Efflux Ratio” value was found to be 6.4. Further, the “% Unbound” value in series [3] stood at 5.58%. Besides, the fraction unbound at 6 h, 5 µM in series [3] (plasma, human, 5 μM, read-out: fu, plasma %) came to 0.056. Further, the pIC50 in series [4] was 8.70. Also, in series [5] (hepatocytes), the amount remaining (in general, what is left of the initial amount, in per cent) at 0.5 min was found to be 100%; the fraction remaining at 0.5 h was determined as 52.5%; the share remaining at 1 h worked out at 29.4%; the share remaining at 2 h was found to be 9.48%. In series [5] (hepatocytes), this molecule showed a t1/2 of 34.2 min.

Take `COc1cc2c(Nc3cccc(OC)c3Cl)c(C#N)cnc2cc1OCCON1CCN(C)CC1` [Compound 17, 4-((2-Chloro-3-methoxyphenyl)amino)-6-methoxy-7-(2-((4-methylpiperazin-1-yl)oxy)ethoxy)quinoline-3-carbonitrile]: the pIC50 in series [1] was 7.51. Besides, in series [2], the “Efflux Ratio” value is 3.58. For the same molecule, in series [3], the “% Unbound” value came out at 7.37%. In addition, the pIC50 in series [4] was 7.85. In series [5], the “stability in hepatocytes, in words” value is recorded as “good stability in human hepatocytes”. Besides, in series [5] (hepatocytes), the share remaining at 0.5 min was found to be 100%, the fraction remaining at 0.5 h is 80.6%, the amount remaining at 1 h came to 60.5% and the amount remaining at 2 h stood at 35.8%.

In series [1], `COc1cc(Cl)ccc1Nc1c(C#N)cnc2cc(OCCON3CCN(C)CC3)c(OC)cc12` [Compound 20, 4-((4-Chloro-2-methoxyphenyl)amino)-6-methoxy-7-(2-((4-methylpiperazin-1-yl)oxy)ethoxy)quinoline-3-carbonitrile] gave a pIC50 of 7.89. For the same molecule, the “Efflux Ratio” value in series [2] came out at 6.24. The “% Unbound” value in series [3] amounted to 7.73%. The pIC50 in series [4] was 7.96. Further, the “stability in hepatocytes, in words” value in series [5] is recorded as “good stability in human hepatocytes”. In series [5] (hepatocytes), this molecule gave an amount remaining at 0.5 min of 100%, an amount remaining at 0.5 h of 63.5%, a share remaining at 1 h of 43.3% and a share remaining at 2 h of 20.1%.
